How the values were obtained:
hCA-I = biological target: T1, hCA-I (Homo sapiens, UniProt P00915); assay: CO2 hydratase assay (Wilbur-Anderson); format: biochemical
T1 construct: gene CA1
Text: CO2 hydratase assay (Wilbur-Anderson) on hCA-I

hCA-II = biological target: T2, hCA-II (Homo sapiens, UniProt P00918); assay: CO2 hydratase assay (Wilbur-Anderson); format: biochemical
T2 construct: gene CA2
Text: CO2 hydratase assay (Wilbur-Anderson) on hCA-II

T1 sequence (P00915 2-261): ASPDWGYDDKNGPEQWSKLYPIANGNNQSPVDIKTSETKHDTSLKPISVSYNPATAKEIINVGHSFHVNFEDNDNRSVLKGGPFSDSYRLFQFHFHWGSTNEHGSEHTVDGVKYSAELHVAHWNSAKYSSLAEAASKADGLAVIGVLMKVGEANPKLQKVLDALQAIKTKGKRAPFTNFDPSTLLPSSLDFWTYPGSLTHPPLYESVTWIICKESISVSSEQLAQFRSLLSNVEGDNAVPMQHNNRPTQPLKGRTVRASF

Row | Ki (hCA-I) | Ki (hCA-II) | SMILES
1 | 0.0254 µM | 0.0546 µM | O=C1c2ccccc2C(=O)N1Sc1nc2ccccc2[nH]1 [1i]
2 | 0.0321 µM | 0.143 µM | O=C1c2ccccc2C(=O)N1Sc1ccc(Cl)cc1 [1e]
3 | 0.0408 µM | 0.052 µM | O=C1c2ccccc2C(=O)N1SCc1ccccc1 [1g]
4 | 0.0585 µM | 0.0515 µM | O=C1c2ccccc2C(=O)N1Sc1ccccc1 [1a]

Further lines, the molecule ahead of its results:

Row | SMILES | Ki (hCA-I) | Ki (hCA-II)
5 | COc1ccc(SN2C(=O)c3ccccc3C2=O)cc1 [1c] | 0.0379 µM | 0.06 µM
6 | O=C1c2ccccc2C(=O)N1SC1CCCCC1 [1h] | 0.0503 µM | 0.0617 µM
7 | O=C1c2ccccc2C(=O)N1Sc1ccc(Br)cc1 [1f] | 0.023 µM | 0.044 µM
8 | O=C1c2ccccc2C(=O)N1Sc1ccc([N+](=O)[O-])cc1 [1d] | 0.119 µM | 0.152 µM

— paper PMC10044159, “Inhibitory effects of sulfenimides on human and bovine carbonic anhydrase enzymes” (Journal of Enzyme Inhibition and Medicinal Chemistry, 2023)
